Results from patent US6903104B2, “Indol-3-YL-2-oxoacetamide compounds and methods of use thereof” (National Health Research Institutes, priority 2001, dated 2005).

Tests used:
[1] = system: colorectal DLD1 cancer cells; test: In vitro cytotoxicity MTS assay, colorectal DLD1; format: cell-based, human; conditions: 72 hours
Experimental: (§1) A panel of human cancer cells, gastric NUGC3 and HR, nasopharyngeal HONE1, hepatocellular HEP G2 and HA-22T, colorectal DLD1, lung A549, prostate PC3, breast MCF7 and its adriamycin-resistant MCF7/ADR subline, uterus MES-SA and its adriamycin-resistant MES-SA/Dx5 subline, is purchased from Food Industry Research and Development Institute, Hsinchu, Taiwan R.O.C. or American Type Culture Collection, Manassas, Va. U.S.A., are used in in vitro cytotoxicity assays. The human cells are seeded at a cell density of 3000 or 4500 cells/100 μl/well in 96-well flat-bottom plates and incubated for 24 hours at 37° C. in a 5% CO2 incubator. The testing compounds are dissolved in dimethyl sulfoxide (DMSO) and further diluted into the culture medium for treatments of human cancer cells in vitro. The drug-containing media has a final DMSO concentration of ≦0.3%. The compounds of this invention are prepared in culture media for testing at a range of concentrations from 10, 1, 0.1, 0.01 to 0.001 μM. Each compound solution is (200 μl/well in duplicate) in the cell plates and is treated for 72 hours at 37° C., 5% CO2 in an incubator. Actinomycin D at 5 μM and 0.3% DMSO are used as the positive and vehicle controls, respectively. A colorimetric assay using 3-(4,5-dimethylthiazol-2-yl)-5-(3-carboxymethoxyphenyl)-2-(4-sulfophenyl)-2H-tetrazolium (MTS) and phenazine methosulfate (PMS) is used to determine the potency of the compounds. This assay measures cell viability based on the cellular activity in conversion of a tetrazolium salt into a colored soluble formazan product. The optical density (OD) values are measured at 490 nm with a 1420 multilabel counter VICTOR® from Wallac, Turku, Finland. All of the measured values are subtracted with that of the blank control wells without cells before further calculations. The efficacy data are expressed as a percentage normalized to the vehicle controls as calculated in the following formulae. Inhibitory potency (% of vehicle control)=[(OD490compound−OD490blank)/(OD490vehicle−OD490blank)]×100%. The concentration (IC50) of a test compound that inhibits 50% of the cellular activity is determined.

[2] = system: hepatocellular HA-22T cancer cells; test: In vitro cytotoxicity MTS assay, hepatocellular HA-22T; format: cell-based, human; conditions: 72 hours
Experimental: as §1

[3] = system: adriamycin-resistant MCF7/ADR subline; test: In vitro cytotoxicity MTS assay, adriamycin-resistant MCF7/ADR; format: cell-based, human; conditions: 72 hours
Experimental: as §1

[4] = system: gastric NUGC3 cancer cells; test: In vitro cytotoxicity MTS assay, gastric NUGC3; format: cell-based, human; conditions: 72 hours
Experimental: as §1

gastric HR cancer cells = test: In vitro cytotoxicity MTS assay, gastric HR; format: cell-based, human; conditions: 72 hours
Experimental: as §1

[5] = system: nasopharyngeal HONE1 cancer cells; test: In vitro cytotoxicity MTS assay, nasopharyngeal HONE1; format: cell-based, human; conditions: 72 hours
Experimental: as §1

breast MCF7 cancer cells = test: In vitro cytotoxicity MTS assay, breast MCF7; format: cell-based, human; conditions: 72 hours
Experimental: as §1

[6] = system: hepatocellular HEP G2 cancer cells; test: In vitro cytotoxicity MTS assay, hepatocellular HEP G2; format: cell-based, human; conditions: 72 hours
Experimental: as §1

[7] = system: rat aorta endothelial cells; test: Rat aorta tube formation assay (angiogenesis inhibition); format: cell-based, Spraque-Dawley rats; set-up: key: Noninhibitors are indicated by the symbol (−), meaning that the extent of endothelial cell growth is essentially at the same level as that of the control; The most potent inhibitors receive a score of (+++++), indicating essentially no measurable endothelial cell growth; conditions: 5 days
Experimental: The procedures are modified from previous reports (Burbridge and West 2001; Bauer et al. 2000; Nicosai and Ottinetti 1990a) and described as follows. Male Spraque-Dawley rats of 6-8 weeks old are purchased from the National Laboratory Animal Breeding and Research Center (Taipei, Taiwan). The animals are anesthetized with urethane (2 g/kg, intraperitoneal) and the thoracic aortas are quickly harvested in a laminar flow hood. The aortas are rinsed with ice-cold normal saline with 10 μg/ml gentamicin and the attached fibroadipose tissues are removed using micro-dissection scissors. The aortas are cross-sectioned into rings of 1 mm in thickness. A mixture of Matrigel®, purchased from BD Biosciences, solution and the EBM-II medium, purchased from BioWhittaker Inc., (1:1) with 2% FBS, 0.25 mg/ml, amphotericin B and 10 μg/ml gentamicin is prepared and added at 100 μl to each well of a 48-well plate. The mixture is allowed to gel at 37° C. Aorta rings are then placed onto the gelled matrix and embedded in an additional 150 μl per well of the mixture solution and allowed to gel at 37° C. The aorta rings are then covered with 125 μl of the EGM-II medium and incubated overnight in humidified incubator with 5% CO2/95% air at 37° C. After removal of the EGM-II from the established aorta cultures, the compound-containing media are applied at 300 μl per well to the cultures and then incubated in 5% CO2/95% air at 37° C. for 5 days. The cultures are then subject to the 3-[4,5-dimethylthiazol-2-yl]-2,5 diphenyl-2H-tetrazolium bromide (MTT) or 3-(4,5-dimethylthiazol-2-yl)-5-(3-carbomethoxyphenyl)-2H-tetrazolium (MTS) assay and OD490 nm values measured. The testing compounds are dissolved in dimethyl sulfoxide (DMSO) and prepared in EBM-II media with at a final concentration of DMSO less than 0.1%.
The capillary-like, tube structure of the outgrown rat aorta endothelial cells is easily visualized by MTT staining. The medium on top of the matrix is removed from the established aorta ring cultures. MTT solution of 5 mg/ml in saline is added to the cultures at 100 μl/well and the cultures are incubated in a CO2 incubator at 37° C. for 24 hr. The stained cultures are then examined under a microscope DMIRB from Leica and photos taken with a digital camera.
Inhibition activity is also assessed in the following manner. The reductive reaction of MTS initiated by the viable cellular mitochondrial activity is used as a basis for the measurement of cell viability (Cory et al. 1991; Gieni et al. 1995). To the rat aorta ring cultures 300 μl of a solution containing 100 μg MTS and 1 μg, phenazine methosulfate is added per well and incubated in 5% CO2/95% air at 37° C. for 24 hr. During the incubation, MTS is converted to formazan product. At the end of incubation, the solution overlaying the gel is well-mixed and 100 μl aliquots are transferred into a 96-well plate for measurement of OD490 nm with a spectrophotometer VICTOR™-II from Wallac Oy.
The compounds listed in Table 3 are screened for angiogenesis inhibition. The control compound, ASTA, is D-24851, N-[pyridin-4-yl]-[1-(4-chlorobenzyl)-indol-3-yl]-glyoxylic acid amide. Noninhibitors are indicated by the symbol (−), meaning that the extent of endothelial cell growth is essentially at the same level as that of the control.

[8] = system: murine leukemic P388 cells; test: In vivo anticancer activity, murine leukemic P388 model; set-up: species or system DBA/2J mice; conditions: for increase of life span: P.O., daily, 4×
Experimental: The in vivo anticancer activities of the compounds are evaluated by the following murine leukemic P388 model. Inbred female DBA/2J mice of 4-5 week-old were purchased from the Charles River Laboratories Inc., Wilmington, Mass., USA and the National Laboratory Animals Breeding and Research Center, Taipei, Taiwan, ROC. Murine leukemic P388 cells are purchased from the Japanese Collection of Research Bioresources, Japan. P388 cells are cultured and propagated in RPMI1640 medium supplemented with 50 μM 2-mercaptoethanol and 10% fetal bovine serum. Mice at the age of 6 weeks were grouped as the treatment, negative control and positive control groups at 7 to 8 mice per group. All mice are intravenously inoculated with the P388 cells at one million per mouse one day before the treatments initiated. Compounds of this invention are dissolved in dimethyl sulfoxide (DMSO) and then diluted in 0.5% carboxymethyl cellulose with the final concentration of DMSO less than 0.5%. Different treatment groups are orally given (P.O.), respectively, with compounds of different doses for a pharmacological dose-response relationship. Mice of the negative control group are treated with the dosing vehicle, 0.5% carboxymethyl cellulose. Doxorubicin of the maximal tolerated dose, 10 mg/kg, is given intravenously as an experimental positive control. The cancer cell-inoculated animals are monitored twice daily. The time on which 50% of the P388-inoculated mice is still surviving is defined as the medium survival time and is used to calculate the percentage (normalized to the medium survival time of the control group) of increased in life span after treatment, which is then served as the index of treatment response.

Structure (SMILES) | IC50 [1] [nM] | IC50 [2] [nM] | IC50 [3] [nM] | IC50 [4] [nM] | IC50 (gastric HR cancer cells) [nM] | IC50 [5] [nM] | IC50 (breast MCF7 cancer cells) [nM] | IC50 [6] [nM] | Inhibition Score ([7]; final conc. 0.3 μg/ml) | Inhibition Score ([7]; final conc. 1 μg/ml) | increase of life span ([8]; 25 mg/kg, P388-inoculated mice) [%] | increase of life span ([8]; 50 mg/kg, P388-inoculated mice) [%] | increase of life span ([8]; 100 mg/kg, P388-inoculated mice) [%] | increase of life span ([8]; 150 mg/kg, P388-inoculated mice) [%] | increase of life span ([8]; 200 mg/kg, P388-inoculated mice) [%] | increase of life span ([8]; 400 mg/kg, P388-inoculated mice) [%] | activity in the increase of life span (dose-response) ([8]; oral, P388-inoculated mice) | increased of life span ([8]; maximal tolerated dose, 10 mg/kg, intravenously, mean±sd) [%]
N#Cc1ccc(Cn2cc(C(=O)C(=O)Nc3cc(-c4ccc(Cl)cc4)no3)c3ccccc32)cc1 [Compound 30] | 926 | 558 | 847 | 639 | 739 | 332 | 920 | 953 |  |  |  |  |  |  |  |  |  | 
Cc1cc(Cn2cc(C(=O)C(=O)Nc3ccc4ncccc4c3)c3ccccc32)on1 [Compound 59] | 658 | 115 | 300 | 262 | 294 | 34 | 678 | 613 | +++++ |  |  |  |  |  |  |  |  | 
O=C(Nc1cc(-c2ccc(Cl)cc2)no1)C(=O)c1cn(Cc2ccc(Cl)cc2)c2ccccc12 [Compound 38] | 3720 | 2240 | 4080 | 2010 | 2980 | 487 | 4260 | 3460 | − |  |  |  |  |  |  |  |  | 
Cc1cc(NC(=O)C(=O)c2cn(Cc3cccs3)c3ccccc23)sn1 [Compound 44] |  |  |  |  |  |  |  |  |  | +++++ |  |  |  |  |  |  |  | 
O=C(Nc1ccc2ncccc2c1)C(=O)c1cn(Cc2ccco2)c2ccccc12 [Compound 42] | 799 | 345 | 527 | 634 | 453 | 296 | 928 | 3980 | +++++ |  |  |  |  |  |  |  |  | 
COc1ccc(NC(=O)C(=O)c2cn(Cc3ccccc3C#N)c3ccccc23)cc1 [Compound 32] | 5650 | 1910 | 5290 | 4850 | 2250 | 928 | 5180 | 4770 | +++++ |  |  |  |  |  |  |  |  | 
N#Cc1ccc(Cn2cc(C(=O)C(=O)NCCCCCCOc3ccc(Cl)cc3)c3ccccc32)cc1 [Compound 43] | 534 | 200 | 412 | 134 | 291 | 31 | 856 | 713 |  |  |  |  |  |  |  |  |  | 
COc1ccc(NC(=O)C(=O)c2cn(Cc3ccsc3)c3ccccc23)cc1 [Compound 50] | 734 | 46 | 406 | 37 | 128 | 38 | 171 | 1320 |  |  |  |  |  |  |  |  |  | 
O=C(Nc1ccc2ncccc2c1)C(=O)c1cn(Cc2cscn2)c2ccccc12 [Compound 77] | 1500 | 469 | 595 | 458 | 721 | 380 | 1320 | > 10000 | +++++ |  |  |  |  |  |  |  |  | 
Cc1cc(NC(=O)C(=O)c2cn(Cc3ccc(C#N)cc3)c3ccc(Br)cc23)sn1 [Compound 24] | 5800 | 2840 | 2550 | 1720 | 5460 | 401 | 7650 | 3590 | − |  |  |  |  |  |  |  |  | 
O=C(Nc1ccc2ncccc2c1)C(=O)c1cn(Cc2ccsc2)c2ccccc12 [Compound 48] | 1430 | 303 | 371 | 206 | 552 | 217 | 915 | 4130 |  |  | 25 | 60 | 25 | 68 ± 25 | 63 | 229 | dose-dependent activity | 
N#Cc1ccc(Cn2cc(C(=O)C(=O)Nc3ccc(I)cc3)c3ccccc32)cc1 [Compound 13] | 846 | 356 | 597 | 431 | 396 | 98 | 577 | 6310 | +++++ |  |  |  |  |  |  |  |  | 
COc1cccc2c1C(=O)c1c(O)c3c(c(O)c1C2=O)C[C@@](O)(C(=O)CO)C[C@@H]3O[C@H]1C[C@H](N)[C@H](O)[C@H](C)O1 [doxorubicin, reference compound] |  |  |  |  |  |  |  |  |  |  |  |  |  |  |  |  |  | 119±18
Cc1cc(Cn2cc(C(=O)C(=O)Nc3ccc(Br)cc3)c3ccccc32)on1 [Compound 62] | 651 | 148 | 509 | 137 | 300 | 42 | 872 | 6810 |  |  |  |  |  |  |  |  |  | 
